Reference: ChEMBL document CHEMBL6071173, “Machine Learning Accelerates Screening of Osteoclast Differentiation Inhibitors from Natural Products” (2024)
Active and inactive are the calls of the source. The rule behind the calls is not given here.

What was measured:
[1] = system: RAW 264; assay: Inhibition of RANKL-induced osteoclastogenesis in mouse RAW 264 cells at 1 nM […] by TRAP staining based assay; type: functional, cell-based
[2] = Inhibition of RANKL-induced osteoclastogenesis in mouse RAW 264 cells at 20 uM […] by TRAP staining based assay relative to control; type: functional; conditions: RAW264.7
[3] = system: RAW 264; assay: Cytotoxicity against mouse RAW 264 cells assessed as reduction in cell viability at upto 160 uM by MTT assay; type: functional, cell-based

In the case of `CC1=C(/C=C/C(C)=C/C=C/C(C)=C/C(=O)O)C(C)(C)CCC1`, the inhibition [1] is reported as “Active”.
In the case of `C/C=C/C=C/C(=O)O[C@H]1CC/C=C/[C@H](O)[C@H](O)[C@@H](CCC)OC1=O` [PINOLIDOXIN], the inhibition at 20 µM [2] is reported as 57% and the Activity [3] is reported as “inactive”.
